# Laboratory results as given in patent US7728146B2, “Enzyme inhibitors” (Probiodrug AG, priority 2006, dated 2010).
# Experiments:
# male Sprague Dawley rats = assay: Tetradic encounter test; assay type: in vivo, rat; details: acute
# Protocol: Example 130b was dissolved in 0.5% Natrosol and administered acutely p.o. (gavage) 40 minutes before behavioural testing. Example 130b was administered in doses of 0.3, 1.0 and 3.0 mg/kg in a volume of 5 ml/kg, each.
# Chlordiazepoxide was dissolved in 0.9% NaCl and administered acutely i.p. 30 minutes before behavioural testing with a dose of 3 mg/kg in a volume of 1 ml/kg (test group TG 2, see below). The solution was prepared freshly every day.
# 216 male Sprague Dawley rats. The animals were 6 weeks old at the start of the study. They were housed in groups of 4 animals (“acute animals”) or in single cages (“chronic animals”) at 12 h/12 h light/dark (start of the light phase at 2 a.m.), 20° C., 60% rH. Animals were provided by Elevage Janvier, France.
# Animals were kept in group cages until compound administration. Each two animals derived from the same home cage and were treated the same way. During the time from compound administration to the beginning of the test, animals were kept in single cages for 40 minutes.
# The tetradic encounter test was conducted according to the protocol of Wolffgramm (1990). Four rats were placed for 15 minutes in an open field arena of 1 m×1 m; all four animals of an encounter group were treated in the same way, they received either test compound, reference compound, or vehicle. Each two animals were from the same home cage. The open field was illuminated by dim red light (3-4 Lux). Rats were familiar with the open field and their encounter partners by means of three prior training sessions (no compound administration). Testing (compound administration) started at 2:20 p.m. (dark phase). All animals were marked individually by means of black symbols on their back. Behaviour was recorded on videotapes. Each animal was tested once.
# Raw data were provided as videotapes and protocol sheets of application and test time. From the videotapes the trajectory of the animal's movement was tracked and coordinates and time stamps were continually noted in a data file. The resulting file was transferred to a computer program for further analysis.
# The following parameters were calculated for the whole test phase (15 minutes): • Total distance travelled (m) • Use of available space (%) • Portion of time spent in the centre (%) • Portion of time spent in the corners (%) • Mean distance to the encounter mates (cm) • Distribution of spatial distance to the encounter mates • Dynamics of spatial distance to the encounter mates (cross-distance course) Social Behaviour
# Raw data were provided as videotapes and protocol sheets of application and test time. From the videotapes the social behaviour of each rat was rated by an experienced ethologist using a list of predefined behavioural patterns. The observer was blind to the animal's treatment. The resulting file containing the time series of behavioural patterns was transferred to a computer program for further analysis.
# The following parameters were calculated for the whole test phase (15 minutes): • Number of non-agonistic social acts (N) • Number of aggressive acts (N) • Number of defensive acts (N) • Time spent with non-agonistic social acts (%) • Time spent with aggressive acts (%) • Time spent with defensive acts (%) • Behavioural synchrony
# To quantify inter-individual synchrony, coefficients of synchrony were calculated that base on rank correlation coefficients. For this purpose, the time series of behavioural patterns was subdivided into equidistant interval sections (here: 1 s intervals). To calculate synchrony coefficients, the user must define “pattern sets of interest”. Each set contained one or more behavioural patterns that were taken together for the analysis (e.g. “friendly contact” or “all kinds of social interaction”). […]
# DP IV = DP IV (Homo sapiens, UniProt P27487); assay: DP IV inhibition IC50, parallel-synthesis compounds tested directly following synthesis (without purification); assay type: biochemical; parameters: IC50 DP4; other: tested directly following parallel synthesis, without purification; compounds of formula (Ib) from parallel synthesis, tested directly following synthesis; details: DP IV inhibition; compounds of formula (Ib) from parallel synthesis, tested directly following synthesis (without purification); read-out: IC50
# Procedure, shortened: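 IC50 came from a 4-parameter fit of residual activity (linear 405 nm slopes for pNA release over ~18 min, relative to solvent-only wells). Gly-Pro-pNA was the substrate, cleaved by porcine kidney or recombinant human DP IV at room temperature in HEPES with 5% DMSO; duplicate 1:2 series started at 100 μM final.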
# [1] = vs vehicle, Chlordiazepoxide 3 mg/kg i.p., Example 130b low and high dose (0.3 and 3.0 mg/kg p.o.)
# [2] = vs vehicle, Example 130b high dose (3.0 mg/kg p.o.)
smiles,measurement,setting,value
"NCc1c(-c2ccc(Cl)cc2Cl)ncn1Cc1ccsc1 [Example 130b, (4-(2,4-dichlorophenyl)-1-((thiophen-3-yl)methyl)-1H-imidazol-5-yl)methanamine]",locomotor activity,"male Sprague Dawley rats; tetradic encounter, Chlordiazepoxide 3 mg/kg i.p., Example 130b 0.3-3.0 mg/kg p.o.",altered locomotor activity
same,inter-individual synchrony of behaviour,"male Sprague Dawley rats; vs vehicle, Chlordiazepoxide 3 mg/kg i.p., Example 130b 0.3, 1.0, 3.0 mg/kg p.o. (especially the high dose increased synchrony)",strong effects
same,distance to the encounter mates,male Sprague Dawley rats; [1],significantly higher distance
same,number of defensive acts,male Sprague Dawley rats; [1],statistically significant increase
same,time spent in a distance of 75-100 cm to encounter mates,"male Sprague Dawley rats; vs vehicle, Chlordiazepoxide 3 mg/kg i.p., Example 130b low and medium dose (0.3 and 1.0 mg/kg p.o.)",higher amount
same,time spent in a distance of 25-50 cm to encounter mates,"male Sprague Dawley rats; vs vehicle, Chlordiazepoxide 3 mg/kg i.p., Example 130b low dose (0.3 mg/kg p.o.)",significantly lower amount of time
same,time spent with friendly (non-agonistic) social behaviour,"male Sprague Dawley rats; vs vehicle, Chlordiazepoxide 3 mg/kg i.p., Example 130b medium dose (1.0 mg/kg p.o.)",tended to increase
same,time spent in a distance of 50-75 cm to encounter mates,male Sprague Dawley rats; [2],higher amount
same,time spent in a distance of less than 25 cm to encounter mates,male Sprague Dawley rats; [2],significantly lower amount of time
same,time spent in the centre of the open field,male Sprague Dawley rats; [2],significantly increased
same,usage of available space,male Sprague Dawley rats; [2],significantly increased
same,distance travelled during the first five minutes of the test,"male Sprague Dawley rats; vs vehicle, Example 130b low and high dose (0.3 and 3.0 mg/kg p.o.)",statistically significant increase
same,time spent in a distance of more than 100 cm to encounter mates,"male Sprague Dawley rats; vs vehicle, Example 130b low dose (0.3 mg/kg p.o.)",higher amount
"NCc1c(-c2ccc(Cl)cc2Cl)ncn1Cc1cccnc1 [Example 121b, (4-(2,4-dichlorophenyl)-1-((pyridin-3-yl)methyl)-1H-imidazol-5-yl)methanamine]",IC50,DP IV,4.6 µM
NCc1c(-c2ccc(Cl)cc2Cl)ncn1Cc1ccccn1 [Example 39b],IC50,DP IV,4.6 µM
"NCc1c(-c2ccc(Cl)cc2Cl)ncn1Cc1ccccc1 [Example 24b, (1-benzyl-4-(2,4-dichlorophenyl)-1H-imidazol-5-yl)methanamine]",IC50,DP IV,0.9 µM
